pIC50, pKd: −log10 of the molar value. Structures can show the parent of a compound that is named as a salt. Starred links: 1 amine or outer side, 2 acyl side, 3 side chain; linkers in the order of their positions; H or OH if unused. Non-standard residues stand in square brackets, D forms with d. Residues, ends and D or L forms follow the SMILES beside them. Groups on a side chain read outwards from the residue. *: point of attachment. F4(METRIAZOLYLMENHDOTA-Lu) = Phe with 4-(methyl-triazolyl-methyl-NH-DOTA), Lu complex; DOTA = O=C(O)CN1CCN(CC(=O)O)CCN(CC(=O)*)CCN(CC(=O)O)CC1; Trp(7-OMe) = COc1cccc2c(C[C@H](N)C(=O)O)c[nH]c12; NOTA = O=C(O)CN1CCN(CC(=O)O)CCN(CC(=O)*)CC1; Phe(4-CH2NH2) = NCc1ccc(C[C@H](N)C(=O)O)cc1; Piperazinyl(4-CH2COOH) = O=C(O)CN1CCN(*)CC1; 3Pal(6-NH2) = Nc1ccc(C[C@H](N)C(=O)O)cn1; AEF = NCCOc1ccc(C[C@H](N)C(=O)O)cc1; NMeF = CN[C@@H](Cc1ccccc1)C(=O)O; dHyp = O=C(O)[C@H]1C[C@H](O)CN1; d(αMeP) = C[C@]1(C(=O)O)CCCN1; Ahp(2) = CCCCC[C@H](N)C(=O)O; hSer = N[C@@H](CCO)C(=O)O; AEEA = NCCOCCOCC(=O)O; CO = O=C([*:1])[*:2]; Propyl = CCC*
Columns and labels:
[1] = biological target: T1, mouse FAP (Mus musculus, UniProt P97321); experiment: Surface plasmon resonance (SPR) for peptide affinity, mouse FAP; assay type: binding
T1 construct: biotinylated His, Avi tag, mouse FAP (26-761, FAP-M82Q5); His; Avi tag (biotinylated); purchased AcroBiosystems FAP-M82Q5
T1 sequence (P97321 26-761): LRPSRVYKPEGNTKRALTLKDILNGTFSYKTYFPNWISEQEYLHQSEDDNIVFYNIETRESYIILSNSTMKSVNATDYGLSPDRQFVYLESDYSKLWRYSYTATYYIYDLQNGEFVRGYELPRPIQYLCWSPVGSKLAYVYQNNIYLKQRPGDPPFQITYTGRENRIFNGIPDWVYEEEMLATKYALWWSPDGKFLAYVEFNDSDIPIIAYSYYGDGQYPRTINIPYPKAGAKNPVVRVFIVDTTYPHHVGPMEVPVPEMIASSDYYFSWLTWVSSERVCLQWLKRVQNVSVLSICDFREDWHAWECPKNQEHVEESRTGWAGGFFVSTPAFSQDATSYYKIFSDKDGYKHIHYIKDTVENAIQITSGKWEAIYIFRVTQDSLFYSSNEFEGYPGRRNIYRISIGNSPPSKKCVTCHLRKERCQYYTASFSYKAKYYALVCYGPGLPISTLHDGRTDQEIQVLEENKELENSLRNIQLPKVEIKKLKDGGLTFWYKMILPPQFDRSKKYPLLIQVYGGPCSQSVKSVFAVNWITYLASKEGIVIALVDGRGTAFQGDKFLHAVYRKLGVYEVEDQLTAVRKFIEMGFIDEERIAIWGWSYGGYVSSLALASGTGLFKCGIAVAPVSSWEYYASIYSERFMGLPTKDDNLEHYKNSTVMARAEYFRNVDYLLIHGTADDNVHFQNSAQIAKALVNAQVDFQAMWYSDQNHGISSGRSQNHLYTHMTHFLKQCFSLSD
Method: Peptide affinities (KD) were determined by SPR using a Biacore™ 8K device (Cytiva) towards the following proteins: biotinylated His, Avi tag, human FAP (26-760, FAP-H82Q6), biotinylated His, Avi tag, mouse FAP (26-761, FAP-M82Q5), His tag, human DPP4 (34-766, DP4-H82E3), all purchased from AcroBiosystems and His tag, mouse DPP4 (29-760, 954-SE) from R&D Systems. The FAP proteins and their homologous were diluted to a concentration of 2 μg/mL into acetate buffer pH 5.5, then immobilized onto a CM5 sensorchip (Cytiva, BR-1005-30) to reach a response around 2000 R U. The running buffer HBS-EP+pH 7.6 (20× from Teknova CAT. No: H8022) contained 10 mM HEPES pH 7.6, 150 mM NaCl, 3 mM EDTA, 0.05% Tween20 and 2% DMSO. Experiments were carried out at 25° C. using a flow rate of 30 μL/min. Compounds were tested in single cycle kinetic mode at 8 different concentrations. Curve fitting was performed using the Biacore™ 8K evaluation software. The sensorgrams were fitted by applying a 1:1 binding model to calculate kinetic rate constants and equilibrium dissociation constants (KD).
For this assay, the setup had the same conditions (flow rate, running buffer, peptide dilution) as described above for the CM5 method. The oligo CAP reagent obtained in the CAPture Kit (Ref. 28920234) was 1/5 diluted into running buffer and used with a contact time of 300 s at a flow rate of 2 μL/min. The human and mouse FAP constructs described above were used (from AcroBiosystems or produced in house). The FAP proteins were diluted to a concentration of 2 μg/mL into acetate pH 5.5, 0.05% Tween20 and used with a contact time of 600 s at a flow rate of 10 μL/min. The peptides were tested with an association time of 280 s followed by a dissociation time of 3000 s at a flow rate of 30 μL/min. The regeneration was done using the regeneration solution (8 M guanidine-HCl, 1 M NaOH) as obtained with a contact time of 270 s at a flow rate of 10 μL/min. […] The compounds marked with an asterisk were tested against human and mouse DDP4.

[2] = biological target: T2, human FAP (Homo sapiens, UniProt Q12884); experiment: Enzymatic FAP competition assay (Z-Gly-Pro-AMC fluorescence), human FAP; assay type: biochemical; details: read-out: h. FAP, Enz., IC50
T2 construct: the biotinylated His, Avi tag, human FAP (26-760, FAP-H82Q6); His; Avi tag (biotinylated); purchased AcroBiosystems FAP-H82Q6
T2 sequence (Q12884 26-760): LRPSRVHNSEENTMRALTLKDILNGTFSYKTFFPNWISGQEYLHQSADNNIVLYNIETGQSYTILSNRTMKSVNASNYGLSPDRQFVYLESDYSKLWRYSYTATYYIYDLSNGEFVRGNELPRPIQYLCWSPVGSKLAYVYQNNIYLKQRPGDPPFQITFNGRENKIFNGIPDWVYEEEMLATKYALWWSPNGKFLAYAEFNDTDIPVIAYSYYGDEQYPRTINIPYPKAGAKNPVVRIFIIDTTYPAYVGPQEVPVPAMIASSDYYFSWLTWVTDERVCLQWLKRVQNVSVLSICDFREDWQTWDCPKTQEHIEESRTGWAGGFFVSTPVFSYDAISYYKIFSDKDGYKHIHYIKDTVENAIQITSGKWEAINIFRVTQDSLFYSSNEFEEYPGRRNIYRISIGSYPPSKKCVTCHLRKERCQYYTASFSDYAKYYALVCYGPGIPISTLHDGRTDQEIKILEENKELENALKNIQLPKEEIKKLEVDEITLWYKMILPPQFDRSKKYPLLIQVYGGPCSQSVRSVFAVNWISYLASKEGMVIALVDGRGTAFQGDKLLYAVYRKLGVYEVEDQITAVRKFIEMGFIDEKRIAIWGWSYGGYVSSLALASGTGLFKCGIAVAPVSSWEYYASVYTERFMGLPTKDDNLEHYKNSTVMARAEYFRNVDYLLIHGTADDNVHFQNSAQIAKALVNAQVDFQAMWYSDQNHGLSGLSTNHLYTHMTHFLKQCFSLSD
Method: (§1) Peptide potencies (IC50) to inhibit the FAP enzymatic activity were determined using a fluorescence-based assay towards the biotinylated His, Avi tag, human FAP (26-760, FAP-H82Q6) and the biotinylated His, Avi tag, mouse FAP (26-761, FAP-M82Q5). Standard assay conditions consisted of 20 μL total volume in white 384-well plates (Greiner, Ref. 784075), in 50 mM phosphate buffer pH 7.5 containing 150 mM NaCl, 0.05% Tween20 and 1% final DMSO. Tested peptides at 14 different concentrations up to 1 μM were added to 0.01 nM human or mouse FAP. The peptides were incubated for 24 hours together with the protein before adding the substrate 50 μM Z-Gly-Pro-AMC (I-1145 from Bachem). Samples were then incubated at 22-24° C. for 4 h before reading the fluorescence at excitation wavelength of 380 nm and emission wavelength of 460 nm using the Tecan Infinite® M1000 PRO. The high control (100% activity) was not containing any peptide, and an internal potent peptide was added at 10 μM concentration for the low control (100% inhibition). IC50 values were calculated by curve fitting using an in-house developed software (Novartis Helios software application) using the method described by Fomenko et al., 2006 (regression algorithms for nonlinear dose-response curve fitting). Following normalization of activity values for the wells to % inhibition (% inhibition=[(high control-sample)/(high control-low control)]x 100). IC50 fitting was carried out from the duplicated points.

[3] = biological target: T1, mouse FAP; experiment: Enzymatic FAP competition assay (Z-Gly-Pro-AMC fluorescence), mouse FAP; assay type: biochemical; details: read-out: m. FAP, Enz., IC50
Method: as §1

Row | Compound | pKd [1] | pIC50 [2] | pIC50 [3]
1 | CCCCC[C@@H]1NC(=O)[C@H](Cc2ccc(OCCNC(=O)CN3CCN(CC(=O)O)CCN(CC(=O)O)CCN(CC(=O)O)CC3)cc2)NC(=O)[C@H](Cc2ccccc2)N(C)C(=O)CNC(=O)CNC(=O)[C@H]2CCCN2C(=O)[C@H](CC(=O)O)NC(=O)[C@H](Cc2ccc(N)nc2)NC(=O)CNC(=O)[C@H](Cc2c[nH]c3ccccc23)NC1=O [Example B24, Gly-Gly-NMePhe-F(4OEtNHDOTA)-Ahp-Trp-Gly-3PyA(6NH2)-Asp-D-Pro, TFA salt] (cyclo([AEF](DOTA)[Ahp(2)]WG[3Pal(6-NH2)]D[dP]GG[NMeF])) | 10.18 | 10.92 | 9.97
2 | CCCCC[C@@H]1NC(=O)[C@H](Cc2ccc(O)cc2)NC(=O)[C@H](Cc2ccccc2)N(C)C(=O)CNC(=O)[C@H](CCCCN)NC(=O)[C@H]2C[C@H](O)CN2C(=O)[C@H](CC(=O)O)NC(=O)[C@H](Cc2ccc(O)cc2)NC(=O)CNC(=O)[C@H](Cc2c[nH]c3ccccc23)NC1=O [Example A41, Lys-Gly-NMePhe-Tyr-Ahp-Trp-Gly-Tyr-Asp-D-trans4hyp, TFA salt] (cyclo([Ahp(2)]WGYD[dHyp]KG[NMeF]Y)) | 7.92 | 8.66 | 8.28
3 | CCCCC[C@@H]1NC(=O)[C@H](Cc2ccc(O)cc2)NC(=O)[C@H](Cc2ccccc2)N(C)C(=O)CNC(=O)CNC(=O)[C@H]2CCCN2C(=O)[C@H](C)NC(=O)[C@H](Cc2ccc(O)cc2)NC(=O)CNC(=O)[C@H](Cc2c[nH]c3ccccc23)NC1=O [Example A56, Gly-Gly-NMePhe-Tyr-Ahp-Trp-Gly-Tyr-Ala-D-Pro] (cyclo(A[dP]GG[NMeF]Y[Ahp(2)]WGY)) | 7.49 | 8.38 | 7.51
4 | CCCCC[C@@H]1NC(=O)[C@H](Cc2ccc(O)cc2)NC(=O)[C@H](Cc2ccccc2)N(C)C(=O)CNC(=O)CNC(=O)[C@H]2CCCN2C(=O)[C@H](CC(=O)O)NC(=O)[C@H](Cc2ccc(O)cc2)NC(=O)CNC(=O)[C@H](Cc2c[nH]c3c(OC)cccc23)NC1=O [Example A61, Gly-Gly-NMePhe-Tyr-Ahp-W(7OMe)-Gly-Tyr-Asp-D-Pro] (cyclo([Ahp(2)][Trp(7-OMe)]GYD[dP]GG[NMeF]Y)) | 9.79 | 10.19 | 9.52
5 | CCCCC[C@@H]1NC(=O)[C@H](Cc2ccc(O)cc2)NC(=O)[C@H](Cc2ccccc2)N(C)C(=O)CNC(=O)CNC(=O)[C@@]2(C)CCCN2C(=O)[C@H](CC(=O)O)NC(=O)[C@H](Cc2ccc(O)cc2)NC(=O)CNC(=O)[C@H](Cc2c[nH]c3ccccc23)NC1=O [Example A70, Gly-Gly-NMePhe-Tyr-Ahp-Trp-Gly-Tyr-Asp-D-aMeP] (cyclo([Ahp(2)]WGYD[d(αMeP)]GG[NMeF]Y)) | 9.98 | 10.44 | 9.94
6 | CCCCC[C@@H]1NC(=O)[C@H](Cc2ccc(O)cc2)NC(=O)[C@H](Cc2ccccc2)NC(=O)CNC(=O)[C@H](CCCCN)NC(=O)[C@H]2CCCN2C(=O)[C@H](CC(=O)O)NC(=O)[C@H](Cc2ccc(O)cc2)NC(=O)CNC(=O)[C@H](Cc2c[nH]c3ccccc23)NC1=O [Example A22, Lys-Gly-Phe-Tyr-Ahp-Trp-Gly-Tyr-Asp-D-Pro, TFA salt] (cyclo([Ahp(2)]WGYD[dP]KGFY)) | 9.06 | 9.48 | 9.17
7 | CCCCC[C@@H]1NC(=O)[C@H](Cc2ccc(O)cc2)NC(=O)[C@H](Cc2ccccc2)N(C)C(=O)[C@@H](CO)NC(=O)CNC(=O)[C@H]2CCCN2C(=O)[C@H](CC(=O)O)NC(=O)[C@H](Cc2ccc(O)cc2)NC(=O)CNC(=O)[C@H](Cc2c[nH]c3ccccc23)NC1=O [Example A67, Gly-D-Ser-NMePhe-Tyr-Ahp-Trp-Gly-Tyr-Asp-D-Pro] (cyclo([Ahp(2)]WGYD[dP]G[dS][NMeF]Y)) | 6.68 | 7.12 | 6.60

Other lines, results leading:

Row | pKd [1] | pIC50 [2] | pIC50 [3] | Compound
8 | > 10.39 | 11.15 | 10.72 | Gly-Gly-NMe3PyA-F(4amPEG2NHDOTA-Lu)-hS(Pr)-W7N-Gly-K(COpipzaa)-Asp-D-Pro [Example C3]
9 | > 10.47 | 11.15 | 10.77 | CCCOCC[C@@H]1NC(=O)[C@H](Cc2ccc(CNC(=O)COCCOCCNC(=O)CN3CCN(CC(=O)O)CCN(CC(=O)O)CC3)cc2)NC(=O)[C@H](Cc2ccccc2)N(C)C(=O)CNC(=O)CNC(=O)[C@H]2CCCN2C(=O)[C@H](CC(=O)O)NC(=O)[C@H](CCCCNC(=O)N2CCN(CC(=O)O)CC2)NC(=O)CNC(=O)[C@H](Cc2c[nH]c3ccccc23)NC1=O [Example B34, Gly-Gly-NMePhe-F(4amPEG2NHNOTA-hS(Pr)-Trp-Gly-K(COpipzaa)-Asp-D-Pro] (cyclo(D[dP]GG[NMeF][Phe(4-CH2NH2)]([AEEA-NOTA])[hSer](Propyl)WGK([CO-Piperazinyl(4-CH2COOH)])))
10 | 10.32 | 11.05 | 10.62 | Gly-Gly-NMePhe-F4(METRIAZOLYLMENHDOTA-Lu)-Ahp-Trp-Gly-Tyr-Asp-D-Pro (cyclo(GG[NMeF][F4(METRIAZOLYLMENHDOTA-Lu)][Ahp(2)]WGYD[dP]); also: Lu complex) [Example C14]

Source: US20250090699A1, “FAP TARGETING CYCLIC PEPTIDES AND CONJUGATES THEREOF” (Novartis AG, priority 2023, published 2025)
